Measured values as given in PubChem BioAssay (NCI).
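Test compounds were applied to cells in 96-well plates for 48 hours at 5 doses. The concentration for full growth arrest is given as TGI.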

What was measured:
Assay in all cases: inhibition of tumour cell growth, NCI panel, 48 h
EKVX NSCLC = tested on: EKVX NSCLC
A549 NSCLC = tested on: A549 NSCLC
CAKI-1 renal = tested on: CAKI-1 renal
SNB-75 CNS = tested on: SNB-75 CNS
PC-3 prostate = tested on: PC-3 prostate
OVCAR-4 ovarian = tested on: OVCAR-4 ovarian
HCT-15 colon = tested on: HCT-15 colon
MCF7 breast = tested on: MCF7 breast
786-0 renal = tested on: 786-0 renal
HCT-116 colon = tested on: HCT-116 colon
MDA-MB-231 breast = tested on: MDA-MB-231 breast
HL-60(TB) leukemia = tested on: HL-60(TB) leukemia
RPMI-8226 leukemia = tested on: RPMI-8226 leukemia
IGROV1 ovarian = tested on: IGROV1 ovarian
OVCAR-5 ovarian = tested on: OVCAR-5 ovarian
HT29 colon = tested on: HT29 colon
NCI/ADR-RES ovarian = tested on: NCI/ADR-RES ovarian
MDA-N = tested on: MDA-N
T-47D breast = tested on: T-47D breast
SK-MEL-28 melanoma = tested on: SK-MEL-28 melanoma
DU-145 prostate = tested on: DU-145 prostate
NCI-H522 lung = tested on: NCI-H522 lung
MALME-3M melanoma = tested on: MALME-3M melanoma
MDA-MB-435 = tested on: MDA-MB-435
NCI-H460 lung = tested on: NCI-H460 lung
HS 578T breast = tested on: HS 578T breast
K-562 leukemia = tested on: K-562 leukemia
SNB-19 CNS = tested on: SNB-19 CNS
UO-31 renal = tested on: UO-31 renal
BT-549 breast = tested on: BT-549 breast
SK-MEL-2 melanoma = tested on: SK-MEL-2 melanoma
SF-539 CNS = tested on: SF-539 CNS
ACHN renal = tested on: ACHN renal
HOP-92 NSCLC = tested on: HOP-92 NSCLC
SF-268 CNS = tested on: SF-268 CNS
MOLT-4 leukemia = tested on: MOLT-4 leukemia
SN12C renal = tested on: SN12C renal
UACC-257 melanoma = tested on: UACC-257 melanoma
M14 melanoma = tested on: M14 melanoma
KM12 colon = tested on: KM12 colon
OVCAR-8 ovarian = tested on: OVCAR-8 ovarian
SW-620 colon = tested on: SW-620 colon
NCI-H23 lung = tested on: NCI-H23 lung
RXF 393 renal = tested on: RXF 393 renal
NCI-H226 lung = tested on: NCI-H226 lung
SR leukemia = tested on: SR leukemia
COLO 205 colon = tested on: COLO 205 colon
SK-OV-3 ovarian = tested on: SK-OV-3 ovarian
SK-MEL-5 melanoma = tested on: SK-MEL-5 melanoma
UACC-62 melanoma = tested on: UACC-62 melanoma
U251 CNS = tested on: U251 CNS
TK-10 renal = tested on: TK-10 renal
SF-295 CNS = tested on: SF-295 CNS
CCRF-CEM leukemia = tested on: CCRF-CEM leukemia
LOX IMVI melanoma = tested on: LOX IMVI melanoma
HCC-2998 colon = tested on: HCC-2998 colon
HOP-62 NSCLC = tested on: HOP-62 NSCLC
OVCAR-3 ovarian = tested on: OVCAR-3 ovarian

With `Nc1ccc2c(O)cc(=O)[nH]c2n1` the TGI (EKVX NSCLC) was greater than 100 µM, the TGI (A549 NSCLC) was greater than 100 µM and the TGI (CAKI-1 renal) was greater than 100 µM. For the same compound, the TGI (SNB-75 CNS) was greater than 100 µM, the TGI (PC-3 prostate) was greater than 100 µM and the TGI (OVCAR-4 ovarian) was greater than 100 µM. It also gave a TGI (HCT-15 colon) greater than 100 µM, a TGI (MCF7 breast) greater than 100 µM and a TGI (786-0 renal) greater than 100 µM. The TGI (HCT-116 colon) was greater than 100 µM, the TGI (MDA-MB-231 breast) was greater than 100 µM and the TGI (HL-60(TB) leukemia) was greater than 100 µM. For the same compound, the TGI (RPMI-8226 leukemia) was greater than 100 µM, the TGI (IGROV1 ovarian) was greater than 100 µM and the TGI (OVCAR-5 ovarian) was greater than 100 µM. It also gave a TGI (HT29 colon) greater than 100 µM, a TGI (NCI/ADR-RES ovarian) greater than 100 µM and a TGI (MDA-N) greater than 100 µM. For the same compound, the TGI (T-47D breast) was greater than 100 µM, the TGI (SK-MEL-28 melanoma) was greater than 100 µM and the TGI (DU-145 prostate) was greater than 100 µM. It also gave a TGI (NCI-H522 lung) greater than 100 µM, a TGI (MALME-3M melanoma) greater than 100 µM and a TGI (MDA-MB-435) greater than 100 µM. The TGI (NCI-H460 lung) was greater than 100 µM, the TGI (HS 578T breast) was greater than 100 µM and the TGI (K-562 leukemia) was greater than 100 µM. The TGI (SNB-19 CNS) was greater than 100 µM, the TGI (UO-31 renal) was greater than 100 µM and the TGI (BT-549 breast) was greater than 100 µM. It also gave a TGI (SK-MEL-2 melanoma) greater than 100 µM, a TGI (SF-539 CNS) greater than 100 µM and a TGI (ACHN renal) greater than 100 µM. For the same compound, the TGI (HOP-92 NSCLC) was greater than 100 µM, the TGI (SF-268 CNS) was greater than 100 µM and the TGI (MOLT-4 leukemia) was greater than 100 µM. The TGI (SN12C renal) was greater than 100 µM, the TGI (UACC-257 melanoma) was greater than 100 µM and the TGI (M14 melanoma) was greater than 100 µM. It also gave a TGI (KM12 colon) greater than 100 µM, a TGI (OVCAR-8 ovarian) greater than 100 µM and a TGI (SW-620 colon) greater than 100 µM. For the same compound, the TGI (NCI-H23 lung) was greater than 100 µM, the TGI (RXF 393 renal) was greater than 100 µM and the TGI (NCI-H226 lung) was greater than 100 µM. The TGI (SR leukemia) was greater than 100 µM, the TGI (COLO 205 colon) was greater than 100 µM and the TGI (SK-OV-3 ovarian) was greater than 100 µM. It also gave a TGI (SK-MEL-5 melanoma) greater than 100 µM, a TGI (UACC-62 melanoma) greater than 100 µM and a TGI (U251 CNS) greater than 100 µM. It also gave a TGI (TK-10 renal) greater than 100 µM and a TGI (SF-295 CNS) greater than 100 µM.

With `CN(C)c1ccc(C=Nc2ccc(Oc3ccc(Cl)cc3)c(Cl)c2)cc1` the TGI (EKVX NSCLC) was 40.8 µM, the TGI (A549 NSCLC) was 53.4 µM and the TGI (CAKI-1 renal) was 67.2 µM. For the same compound, the TGI (SNB-75 CNS) was 35.6 µM, the TGI (PC-3 prostate) was 36.2 µM and the TGI (OVCAR-4 ovarian) was 66.4 µM. The TGI (HCT-15 colon) was 41.7 µM, the TGI (MCF7 breast) was greater than 100 µM and the TGI (HCT-116 colon) was 34.5 µM. It also gave a TGI (MDA-MB-231 breast) of 38.5 µM, a TGI (HL-60(TB) leukemia) of 40.1 µM and a TGI (CCRF-CEM leukemia) of 57.7 µM. It also gave a TGI (RPMI-8226 leukemia) of 72.3 µM, a TGI (IGROV1 ovarian) of 85.1 µM and a TGI (OVCAR-5 ovarian) greater than 100 µM. For the same compound, the TGI (HT29 colon) was 29.6 µM, the TGI (NCI/ADR-RES ovarian) was 33.2 µM and the TGI (MDA-N) was 52.8 µM. It also gave a TGI (T-47D breast) of 75.3 µM, a TGI (SK-MEL-28 melanoma) of 48.6 µM and a TGI (DU-145 prostate) of 79 µM. The TGI (LOX IMVI melanoma) was 47.6 µM, the TGI (NCI-H522 lung) was 31.4 µM and the TGI (MALME-3M melanoma) was 36.8 µM. For the same compound, the TGI (MDA-MB-435) was greater than 100 µM, the TGI (NCI-H460 lung) was 42.1 µM and the TGI (HS 578T breast) was 33.2 µM. The TGI (SNB-19 CNS) was 41.3 µM, the TGI (UO-31 renal) was 22.9 µM and the TGI (BT-549 breast) was 44.1 µM. The TGI (SK-MEL-2 melanoma) was 37.4 µM, the TGI (SF-539 CNS) was 39.8 µM and the TGI (HCC-2998 colon) was 38.9 µM. For the same compound, the TGI (ACHN renal) was 79.6 µM, the TGI (HOP-92 NSCLC) was 36.1 µM and the TGI (SF-268 CNS) was 28.1 µM. It also gave a TGI (MOLT-4 leukemia) of 66.3 µM, a TGI (SN12C renal) of 43.6 µM and a TGI (HOP-62 NSCLC) of 51.8 µM. It also gave a TGI (UACC-257 melanoma) of 44.6 µM, a TGI (M14 melanoma) of 87.1 µM and a TGI (KM12 colon) of 34.2 µM. For the same compound, the TGI (OVCAR-8 ovarian) was 36.8 µM, the TGI (SW-620 colon) was greater than 100 µM and the TGI (NCI-H23 lung) was 39.9 µM. It also gave a TGI (NCI-H226 lung) of 63.4 µM, a TGI (SR leukemia) of 32.9 µM and a TGI (COLO 205 colon) of 45.2 µM. The TGI (OVCAR-3 ovarian) was 32.4 µM, the TGI (SK-OV-3 ovarian) was 55.9 µM and the TGI (SK-MEL-5 melanoma) was 33.4 µM. The TGI (UACC-62 melanoma) was 36.1 µM, the TGI (U251 CNS) was 34.7 µM and the TGI (TK-10 renal) was greater than 100 µM. It also gave a TGI (SF-295 CNS) of 50.9 µM.
